How the values were obtained:
S. epidermidis = test: Growth curve study, S. epidermidis; type: cell-based, Staphylococcus epidermidis; settings: for Bacterial growth of S. epidermidis at sub-MIC concentration: 6.25 µg/mL; for Bacterial growth of S. epidermidis at 2MIC: highest concentration tested (2MIC), up to 48 h
Protocol: (§1) To further examine the inhibitory effect of the moderately active compounds 1a and 2a on the growth of the six bacterial strains tested, growth kinetic studies were performed. Thus, the six bacterial strains were exposed to three different concentrations of the test compounds using the MIC values (Table 4) as reference (2MIC, MIC, and MIC/2), while untreated cells were used as negative control. The bacterial growth was recorded by measuring the absorbance at several time points.
(§2) A stock solution of selected compounds 1a and 2a was prepared in DMSO, and different concentrations equivalent to 2MIC, MIC, and MIC/2 in TSB of each compound were dispensed into a 96-well plate with a final volume of 100 µL, while only TSB was added for the control wells. Then, 100 µL of a diluted suspension of bacterial cells in TSB with an optical density of 0.125 measured at 600 nm (inoculum of approximately 10^5 CFU/mL) was added to each well, and the incubation was monitored by spectrophotometric measurements. The absorbance was recorded at 600 nm against time (h) at predetermined periods on a microplate reader. The experiments were performed in triplicate.

K. pneumoniae = test: Growth curve study, K. pneumoniae; type: cell-based, Klebsiella pneumoniae; settings: for Bacterial growth of K. pneumoniae at 2MIC: highest concentration tested (2MIC), up to 48 h
Protocol: as §1, §2

E. coli = test: Growth curve study, E. coli; type: cell-based, Escherichia coli; settings: for Bacterial growth of E. coli at 2MIC: highest concentration tested (2MIC), up to 48 h; for Lag phase (delay in bacterial growth), E. coli: lowest concentration evaluated (MIC/2)
Protocol: as §1, §2

C. freundii = test: Growth curve study, C. freundii; type: cell-based, Citrobacter freundii; settings: for Bacterial growth of C. freundii at 2MIC: highest concentration tested (2MIC), up to 48 h
Protocol: as §1, §2

S. faecalis = test: Growth curve study, S. faecalis; type: cell-based, Streptococcus faecalis; settings: for Bacterial growth of S. faecalis at 2MIC: highest concentration tested (2MIC), up to 48 h
Protocol: as §1, §2

S. aureus = test: Growth curve study, S. aureus; type: cell-based, Staphylococcus aureus; settings: for Bacterial growth of S. aureus at 2MIC: highest concentration tested (2MIC), up to 48 h
Protocol: as §1, §2

[1] = DPPH radical scavenging assay; settings: 0.06 mg/mL, after two hours
Protocol: Oxidative stress has been associated with a wide range of pathologies. […] Measurements were performed at 2 concentrations and recorded at eight different time points. Ascorbic acid (Asc) and Trolox were used as positive controls. The results are presented as the percentage of DPPH radical scavenging activity and are outlined in Figure 2.
The antioxidant activity of the selenocompounds was determined by the DPPH assay following a procedure previously published by our group. Briefly, the compounds were dissolved in absolute methanol at a concentration of 1 mg/mL, and a dilution was prepared. Asc and Trolox were used as positive controls. A methanolic solution (100 µM) of DPPH˙ was made daily and […]. The stability of the radical through the time of analysis was checked by absorbance measurements of this solution. A volume of 100 µL of DPPH in methanol was added to 100 µL of the compounds’ solutions to a final concentration of 0.03 or 0.06 mg/mL, and the decolorization of the purple radical to the yellowish reduced form was followed by recording the absorbance at 517 nm. Determinations were recorded at eight different time intervals from 0 to 120 min on a BioTeck PowerWave XS spectrophotometer and the data were collected using KCJunior software. All the measurements were carried out in triplicate. […]

[2] = lowest concentration tested, 12.5 µg/mL

| SMILES | Bacterial growth of S. epidermidis at sub-MIC concentration (S. epidermidis) | Bacterial growth of S. epidermidis at 2MIC (S. epidermidis) | Bacterial growth of K. pneumoniae at the concentrations tested (K. pneumoniae; 2MIC, MIC and MIC/2) | Bacterial growth of K. pneumoniae at 2MIC (K. pneumoniae) | melting point [°C] | Bacterial growth of E. coli at 2MIC (E. coli) | Lag phase (delay in bacterial growth), E. coli (E. coli) [h] | Bacterial growth of C. freundii at 2MIC (C. freundii) | Bacterial growth of S. faecalis at 2MIC (S. faecalis) | Bacterial growth of S. aureus at 2MIC (S. aureus) | DPPH radical scavenging activity [1] [%] | Log phase before bacterial growth, K. pneumoniae (K. pneumoniae; 25 µg/mL) [h] | Log phase before bacterial growth, K. pneumoniae (K. pneumoniae; 50 µg/mL) [h] | Log phase, C. freundii (C. freundii; lowest concentration (50 µg/mL)) [h] | Bacterial growth of S. faecalis at MIC/2 (S. faecalis; [2]) | Delay in the bacterial growth, S. aureus (S. aureus; MIC concentration (25 µg/mL)) [h] | Bacterial growth of S. aureus at MIC/2 (S. aureus; [2]) |
| --- | --- | --- | --- | --- | --- | --- | --- | --- | --- | --- | --- | --- | --- | --- | --- | --- | --- |
| N#C[Se]C/C=C/c1ccccc1 [Compound 1a, (E)-(3-selenocyanatoprop-1-en-1-yl)benzene] | a delay could be observed | no bacterial growth was detected | no growth was detected | no bacterial growth was detected | 87 to 89 | no bacterial growth was detected | 41 | no bacterial growth was detected | no bacterial growth was detected | no bacterial growth was detected |  |  |  |  |  |  |  |
| O=C(CC[Se]CC=Cc1ccccc1)[c-]1cccc1.[Fe+2].c1cc[cH-]c1 [Compound 1c, 3-(Cinnamylselanyl)-1-ferrocenylpropan-1-one] |  |  |  |  |  |  |  |  |  |  | 72.6 |  |  |  |  |  |  |
| N#C[Se]Cc1ccc2c(c1)OCO2 [Compound 2a, 5-(Selenocyanatomethyl)benzo[d][1,3]dioxole] | a delay could be observed | no bacterial growth was detected |  | no bacterial growth was detected | 71 to 73 | no bacterial growth was detected | 10 | no bacterial growth was detected | no bacterial growth was detected | no bacterial growth was detected |  | 28 | 42 | 43 | exponential growth of bacteria was observed | 44 | exponential growth of bacteria was observed |
| O=C(CC[Se]Cc1ccc2c(c1)OCO2)[c-]1cccc1.[Fe+2].c1cc[cH-]c1 [Compound 2c, 3-((Benzo[d][1,3]dioxol-5-ylmethyl)selanyl)-1-ferrocenylpropan-1-one] |  |  |  |  |  |  |  |  |  |  | 76.1 |  |  |  |  |  |  |
